# From patent US10696678B2, “Kinase inhibitor, and preparing method and pharmaceutical use thereof” (GAN & LEE PHARMACEUTICALS, priority 2015, dated 2020)
# Like-named read-outs stand apart in the source and are kept apart here.
# Tests used:
# CDK6/D3 = CDK6/D3 (Homo sapiens (Human), UniProt Q00534); assay: CDKs inhibition assay (ADP-Glo Kinase Assay), CDK6; conditions: for Ratio IC50 (CDK6)/IC50 (CDK1): smaller value = better selectivity for CDK6
# Procedure: (2) Preparation of Test Compound:
# (§1) a. Test compounds at a certain concentration were taken respectively, and diluted with kinase reaction buffer I to compound solutions with a final concentration of 50 μM;
# (§2) 4. Preparation of reaction substrate and ATP mixed solution:
# a. Preparation of ATP solution:
# (§3) 200 μl of 0.1 mM ATP solution: 2 μl of 10 mM ATP was added into 198 μl kinase reaction buffer I;
# (§4) 300 μl of 50 μl M ATP solution: 150 μl kinase reaction buffer I was added into 150 μl of above-mentioned 0.1 mM ATP solution;
# (§5) b. Preparation of 300 μl reaction substrate solution:
# (§6) 150 μl of 1 μg/μl reaction substrate stock solution was added into 150 μl kinase reaction buffer I and uniformly mixed;
# (§7) c. Above-mentioned a/b solutions were mixed to obtain mixed solutions respectively.
# (§8) 2 μl compound solution at each concentration was added into a 384-well plate respectively, and centrifuged for 3 min;
# (§9) 4 μl kinase solution was added into each well, centrifuged at 5000 rpm for 10 min at 18° C., and shaked well for 10 min on a shaker;
# (§10) 4 μl substrate and ATP mixed solution were added into each well, centrifuged at 5000 rpm for 10 min at 18° C., and shaked well for 90 min on a shaker at 37° C.;
# (§11) The 384 well plate was removed and allow to achieve room temperature;
# (§12) 10 μl ADP-Glo reagent was added into each well, centrifuged at 5000 rpm for 10 min at 18° C., and shaked well for 40 min on a shaker at 25° C. to terminate the reaction;
# (§13) 20 μl kinase assay reagent was added into each well, centrifuged at 5000 rpm for 10 min at 18° C., and shaked well for 30 min on a shaker at 25° C.;
# (§14) Fluorescence values were read by M1000pro microplate reader.
# (§15) The inhibition rate of each compound at each concentration point was calculated according to the following equation, and IC50 value was calculated by curve fitting using GraphPad Prism 5 software.
# [1] = system: human breast cancer cell line MDB-MA-231; assay: Proliferation inhibition assay on human breast cancer cell line MDA-MB-231 (DAPI staining, In Cell Analyzer); format: cell-based
# Procedure: Experimental Preparation:
# 1. MDA-MB-231 cells were seeded at 4000 cells/100 ul/well to a 96-well plate with black transparent bottom, and cultured overnight at 37° C.;
# 3. Fixation: the cell plate was taken, medium was removed, and 50 μl of 4% paraformaldehyde was added to each well and fixed 10 min;
# 4.50 μl 0.1 M glycine was added to neutralize for 10 min;
# 6. Permeabilization: 50 ul of 0.2% TritonX-100 was added to each well and permeabilized at room temperature for 10 min;
# 8.5 mg/mL DAPI stock solution was diluted at 1:5000 (final concentration 1 μg/ml) and the cells were stained at room temperature for 20 min.
# 10. The plate was scanned and analyzed on In cell analyser.
# CDK4/D3 = CDK4/D3 (Homo sapiens (Human), UniProt P11802); assay: CDKs inhibition assay (ADP-Glo Kinase Assay), CDK4; conditions: for selectivity for CDK4/6 (over CDK1) compared with the control compound LY2835219: in words; for Ratio IC50 (CDK4)/IC50 (CDK1): smaller value = better selectivity for CDK4
# Procedure: (2) Preparation of Test Compound:
# as §1, §2
# a. Preparation of ATP solution:
# as §3, §4, §5, §6, §7, §8, §9, §10, §11, §12, §13, §14, §15
# CDK1/A2 = CDK1/A2 (Homo sapiens (Human), UniProt P06493); assay: CDKs inhibition assay (ADP-Glo Kinase Assay), CDK1; conditions: read-out: IC50 (nM) CDK1/A2
# Procedure: (2) Preparation of Test Compound:
# as §1, §2
# a. Preparation of ATP solution:
# as §3, §4, §5, §6, §7, §8, §9, §10, §11, §12, §13, §14, §15
# [2] = MDA-MB-231, read-out: IC50 for inhibition of proliferation of human breast cancer cell line MDB-MA-231, 72 h incubation
# [3] = MDA-MB-231, 72 h, read-out: IC50 for inhibition of proliferation of human breast cancer cell line MDB-MA-231
SMILES,IC50 (CDK6/D3),"IC50 [1, 2]",IC50 (CDK4/D3),other results
"CC1(C)CCc2nc3c(F)cc(-c4nc(Nc5ccc6c(n5)CCN(C(=O)CO)C6)ncc4F)cc3n21 [Example 21, 1-(2-((5-Fluoro-4-(5-fluoro-1,1-dimethyl-2,3-dihydro-1H-benzo[d]pyrrolo[1,2-a]imidazol-7-yl)pyrimidin-2-yl)amino)-7,8-dihydro-1,6-naphthyridin-6(5H)-yl)-2-hydroxyethan-1-one]",17.6 nM,–,–,–
"CCN1CCC(Oc2ccc(Nc3ncc(F)c(-c4cc(F)c5nc6n(c5c4)C(C)(C)CC6)n3)nc2)CC1 [Example 33, N-(5-((1-Ethylpiperidine-4-yl)oxy)pyridin-2-yl)-5-fluoro-4-(5-fluoro-1,1-dimethyl-2,3-dihydro-1H-benzo[d]pyrrolo[1,2-a]imidazol-7-yl)pyrimidin-2-amine]",7.6 nM,20 nM,3.2 nM,–
"CC1Cc2nc3c(F)cc(-c4nc(Nc5ccc(N6CCNCC6)cn5)ncc4F)cc3n2C1 (stereo not shown) [Example 50, 5-Fluoro-4-(5-fluoro-2-methyl-2,3-dihydro-1H-benzo[d]pyrrolo[1,2-a]imidazol-7-yl)-N-(5-(piperazin-1-yl)pyridin-2-yl)pyrimidin-2-amine]",368 nM,3650 nM,17.6 nM,–
"Cc1nc(Nc2ncc(F)c(-c3cc(F)c4nc5n(c4c3)C(C)CC5)n2)ccc1CC1CCNCC1 (stereo not shown) [Example 62, 5-Fluoro-4-(5-fluoro-1-methyl-2,3-dihydro-1H-benzo[d]pyrrolo[1,2-a]imidazol-7-yl)-N-(6-methyl-5-(piperidine-4-methylene)pyridin-2-yl)pyrimidin-2-amine]",34 nM,1320 nM,1.7 nM,–
"CCC1CCc2nc3c(F)cc(-c4nc(Nc5ccc(N6CCNCC6)cn5)ncc4F)cc3n21 (stereo not shown) [Example 54, 4-(1-Ethyl-5-fluoro-2,3-dihydro-1H-benzo[d]pyrrolo[1,2-a]imidazol-7-yl)-5-fluoro-N-(5-(piperazin-1-yl)pyridin-2-yl)pyrimidin-2-amine]",9.6 nM,252 nM,19 nM,–
CC1(C)CCc2nc3c(F)cc(-c4nc(Nc5ccc(C6CCNCC6)cn5)ncc4F)cc3n21 [Example 26],–,214 nM,–,–
"CCC1CCc2nc3c(F)cc(-c4nc(Nc5ccc(C6CCN(C)CC6)cn5)ncc4F)cc3n21 (stereo not shown) [Example 68, 4-(1-Ethyl-5-fluoro-2,3-dihydro-1H-benzo[d]pyrrolo[1,2-a]imidazolel-7-yl)-5-fluoro-N-(5-(1-methylpiperidine-4-yl)pyridin-2-yl)pyrimidin-2-amine]",6 nM,–,9 nM,–
"CCN1CCC(c2ccc(Nc3ncc(F)c(-c4cc(F)c5nc6n(c5c4)C(C)(C)CC6)n3)nc2)CC1 [Example 45, N-(5-(1-Ethylpiperidine-4-yl)pyridin-2-yl)-5-fluoro-4-(5-fluoro-1,1-dimethyl-2,3-dihydro-1H-benzo[d]pyrrolo[1,2-a]imidazol-7-yl)pyrimidin-2-amine]",21.7 nM,–,7 nM,"IC50 [1, 3]: 30 nM"
"O=C(CO)N1CCc2nc(Nc3ncc(F)c(-c4cc(F)c5nc6n(c5c4)CCCC6)n3)ccc2C1 [Example 15, 1-(2-((5-Fluoro-4-(6-fluoro-1,2,3,4-tetrahydrobenzo[4,5]imidazo[1,2-a]pyridin-8-yl)pyrimidin-2-yl)amino)-7,8-dihydro-1,6-naphthyridin-6(5H)-yl)-2-hydroxyethan-1-one]",68.6 nM,–,28 nM,"IC50 [1, 3]: 1230 nM"
"CCN1CCN(C(=O)c2ccc(Nc3ncc(F)c(-c4cc(F)c5nc6n(c5c4)C(C)(C)CC6)n3)nc2)CC1 [Example 32, (4-Ethylpiperazin-1-yl)(6-((5-fluoro-4-(5-fluoro-1,1-dimethyl-2,3-dihydro-1H-benzo[d]pyrrolo[1,2-a]imidazol-7-yl)pyrimidin-2-yl)amino)pyridin-3-yl)methyl ketone]",13 nM,579 nM,49 nM,–
"CC1(C)CCc2nc3c(F)cc(-c4nc(Nc5ccc(OC6CCNCC6)cn5)ncc4F)cc3n21 [Example 34, 5-Fluoro-4-(5-fluoro-1,1-dimethyl-2,3-dihydro-1H-benzo[d]pyrrolo[1,2-a]imidazol-7-yl)-N-(5-(piperidine-4-yloxy)pyridin-2-yl)pyrimidin-2-amine]",3.8 nM,35 nM,3.9 nM,–
"CC1CN(c2ccc(Nc3ncc(F)c(-c4cc(F)c5nc6n(c5c4)C(C)(C)CC6)n3)nc2)CC(C)N1 (stereo not shown) [Example 74, N-(5-(3,5-Dimethylpiperazin-1-yl)pyridin-2-yl)-5-fluoro-4-(5-fluoro-1,1-dimethyl-2,3-dihydro-1H-benzo[d]pyrrolo[1,2-a]imidazol-7-yl)pyrimidin-2-amine]",0.6 nM,174 nM,0.28 nM,IC50 (CDK1/A2): 94.8 nM; Ratio IC50 (CDK6)/IC50 (CDK1) (CDK6/D3): 0.006; selectivity for CDK4/6 (over CDK1) compared with the control compound LY2835219 (CDK4/D3): better selectivity for CDK4/6 than the control compound; Ratio IC50 (CDK4)/IC50 (CDK1) (CDK4/D3): 0.003
CC1CCc2nc3c(F)cc(-c4nc(Nc5ccc(C6CCN(C)CC6)cn5)ncc4F)cc3n21 (stereo not shown) [Example 66],21.4 nM,–,4.3 nM,–
"CCC1Cc2nc3c(F)cc(-c4nc(Nc5ccc(N6CCNCC6)cn5)ncc4F)cc3n2C1 (stereo not shown) [Example 52, 4-(2-Ethyl-5-fluoro-2,3-dihydro-1H-benzo[d]pyrrolo[1,2-a]imidazol-7-yl)-5-fluoro-N-(5-(piperazin-1-yl)pyridin-2-yl)pyrimidin-2-amine]",144 nM,1680 nM,60.7 nM,–
"CCN1CCC(c2ccc(Nc3ncc(F)c(-c4cc(F)c5nc6n(c5c4)C(C)CC6)n3)nc2)CC1 (stereo not shown) [Example 69, N-(5-(1-Ethylpiperidine-4-yl)pyridin-2-yl)-5-fluoro-4-(5-fluoro-1-methyl-2,3-dihydro-1H-benzo[d]pyrrolo[1,2-a]imidazol-7-yl)pyrimidin-2-amine]",24.4 nM,–,40 nM,–
"CC1CCc2nc3c(F)cc(-c4ccnc(Nc5ccc(N6CCNCC6)cn5)n4)cc3n21 (stereo not shown) [Example 72, 4-(5-Fluoro-1-methyl-2,3-dihydro-1H-benzo[d]pyrrolo[1,2-a]imidazol-7-yl)-N-(5-(piperazin-1-yl)pyridin-2-yl)pyrimidin-2-amine]",–,–,–,IC50 (CDK1/A2): 693 nM
"Fc1cnc(Nc2ccc(N3CCNCC3)cn2)nc1-c1cc(F)c2nc3n(c2c1)CCCC3 [Example 13, 5-Fluoro-4-(6-fluoro-1,2,3,4-tetrahydrobenzo[4,5]imidazo[1,2-a]pyridin-8-yl)-N-(5-(piperazin-1-yl)pyridin-2-yl)pyrimidin-2-amine]",62.7 nM,–,18 nM,"IC50 [1, 3]: 1170 nM"
"CC1(C)CCc2nc3c(F)cc(-c4ccnc(Nc5ccc(N6CCNCC6)cn5)n4)cc3n21 [Example 23, 4-(5-Fluoro-1,1-dimethyl-2,3-dihydro-1H-benzo[d]pyrrolo[1,2-a]imidazol-7-yl)-N-(5-(piperazin-1-yl)pyridin-2-yl)pyrimidin-2-amine]",90 nM,543 nM,–,–
"CC1CCc2nc3c(F)cc(-c4nc(Nc5ccc6c(n5)CCN(C(=O)CO)C6)ncc4F)cc3n21 (stereo not shown) [Example 58, 1-(2-((5-Fluoro-4-(5-fluoro-1-methyl-2,3-dihydro-1H-benzo[d]pyrrolo[1,2-a]imidazol-7-yl)pyrimidin-2-yl)amino)-7,8-dihydro-1,6-naphthyridin-6(5H)-yl)-2-hydroxyethan-1-one]",47.3 nM,458 nM,28 nM,–
"C[C@H]1CN(Cc2ccc(Nc3ncc(F)c(-c4cc(F)c5nc6n(c5c4)C(C)(C)CC6)n3)nc2)CCN1C [Example 47, (S)—N-(5-((3,4-Dimethylpiperazin-1-yl)methyl)pyridin-2-yl)-5-fluoro-4-(5-fluoro-1,1-dimethyl-2,3-dihydro-1H-benzo[d]pyrrolo[1,2-a]imidazol-7-yl)pyrimidin-2-amine]",3 nM,–,2.4 nM,IC50 (CDK1/A2): 745 nM; Ratio IC50 (CDK6)/IC50 (CDK1) (CDK6/D3): 0.004; selectivity for CDK4/6 (over CDK1) compared with the control compound LY2835219 (CDK4/D3): better selectivity for CDK4/6 than the control compound; Ratio IC50 (CDK4)/IC50 (CDK1) (CDK4/D3): 0.003
"CN(C)C1CCN(c2ccc(Nc3ncc(F)c(-c4cc(F)c5nc6n(c5c4)C(C)(C)CC6)n3)nc2)CC1 [Example 71, N-(5-(4-(Dimethylamino)piperidine-1-yl)pyridin-2-yl)-5-fluoro-4-(5-fluoro-1,1-dimethyl-2,3-dihydro-1H-benzo[d]pyrrolo[1,2-a]imidazol-7-yl)pyrimidin-2-amine]",14 nM,46 nM,1 nM,–
Cc1nc(Nc2ncc(F)c(-c3cc(F)c4nc5n(c4c3)C(C)(C)CC5)n2)ccc1N1CCNCC1 [Example 31],55 nM,129 nM,2 nM,–
CC1CCc2nc3c(F)cc(-c4nc(Nc5ccc(C6CCNCC6)cn5)ncc4F)cc3n21 (stereo not shown) [Example 61],80 nM,1530 nM,3.9 nM,–
"CC1(C)Cc2nc3c(F)cc(-c4nc(Nc5ccc(N6CCNCC6)cn5)ncc4F)cc3n2C1 [Example 55, 5-Fluoro-4-(5-fluoro-2,2-dimethyl-2,3-dihydro-1H-benzo[d]pyrrolo[1,2-a]imidazol-7-yl)-N-(5-(piperazin-1-yl)pyridin-2-yl)pyrimidin-2-amine]",–,–,–,IC50 (CDK1/A2): 6240 nM
